Data published in patent US7138361B2, “Herbicidal heterocycles” (E. I. du Pont de Nemours and Company, priority 2000, dated 2006).

How the values were obtained:
Type in all cases: in vivo
[1] = system: giant foxtail (Setaria faberii); assay: Test B postemergence; conditions: 13 to 15 days
Procedure, shortened: (§1)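 Visual injury scores, 0 = no effect to 100 = complete control, assigned against controls after 13 to 15 days in the greenhouse. Compounds formulated in non-phytotoxic solvent plus surfactant and applied to soil after planting (pre) or onto foliage of 1- to 4-leaf plants (post).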

[2] = system: barnyardgrass (Echinochloa crus-galli); assay: Test B postemergence; conditions: 13 to 15 days
Procedure, shortened: as §1

[3] = system: velvetleaf (Abutilon theophrasti); assay: Test B postemergence; conditions: 13 to 15 days
Procedure, shortened: as §1

[4] = system: pigweed (Amaranthus retroflexus); assay: Test B postemergence; conditions: 13 to 15 days
Procedure, shortened: as §1

[5] = system: Surinam grass (Brachiaria decumbens); assay: Test B postemergence; conditions: 13 to 15 days
Procedure, shortened: as §1

[6] = system: cocklebur (Xanthium strumarium); assay: Test B postemergence; conditions: 13 to 15 days
Procedure, shortened: as §1

[7] = system: morning glory (Ipomoea hederacea); assay: Test B postemergence; conditions: 13 to 15 days
Procedure, shortened: as §1

[8] = system: crabgrass (Digitaria sanguinalis); assay: Test B postemergence; conditions: 13 to 15 days
Procedure, shortened: as §1

corn (Zea mays) [9] = assay: Test B postemergence; conditions: 13 to 15 days
Procedure, shortened: as §1

wild oat (Avena fatua) = assay: Test B postemergence; conditions: 13 to 15 days
Procedure, shortened: as §1

[10] = system: lambsquarters (Chenopodium album); assay: Test B postemergence; conditions: 13 to 15 days
Procedure, shortened: as §1

[11] = system: wheat (Triticum aestivum); assay: Test B postemergence; conditions: 13 to 15 days
Procedure, shortened: as §1

[12] = system: blackgrass (Alopecurus myosuroides); assay: Test B postemergence; conditions: 13 to 15 days
Procedure, shortened: as §1

Sunflower = assay: Test C preemergence; conditions: scale 0 to 100, 0 no effect, 100 complete control
[13] = system: giant foxtail (Setaria faberii); assay: Test B preemergence
Procedure, shortened: as §1

rice (Oryza saliva) = assay: Test B preemergence
Procedure, shortened: as §1

[14] = system: barnyardgrass (Echinochloa crus-galli); assay: Test B preemergence
Procedure, shortened: as §1

[15] = system: velvetleaf (Abutilon theophrasti); assay: Test B preemergence
Procedure, shortened: as §1

[16] = system: pigweed (Amaranthus retroflexus); assay: Test B preemergence
Procedure, shortened: as §1

[17] = system: Surinam grass (Brachiaria decumbens); assay: Test B preemergence
Procedure, shortened: as §1

[18] = system: cocklebur (Xanthium strumarium); assay: Test B preemergence
Procedure, shortened: as §1

[19] = system: morning glory (Ipomoea hederacea); assay: Test B preemergence
Procedure, shortened: as §1

[20] = system: crabgrass (Digitaria sanguinalis); assay: Test B preemergence
Procedure, shortened: as §1

corn (Zea mays) [21] = assay: Test B preemergence
Procedure, shortened: as §1

[22] = system: lambsquarters (Chenopodium album); assay: Test B preemergence
Procedure, shortened: as §1

Nightshade = assay: Test C preemergence; conditions: visual evaluation after 12 to 14 days
[23] = Rate 125 g/ha, scale 0 (no effect) to 100 (complete control)
[24] = Rate 500 g/ha, scale 0 to 100, 0 is no effect, 100 is complete control
[25] = Preemergence, Rate 500 g/ha, scale 0 to 100, 0 no effect, 100 complete control
[26] = preemergence, Rate 125 g/ha, scale 0 to 100, 0 no effect, 100 complete control
[27] = preemergence, Rate 125 g/ha, scale of 0 to 100 where 0 is no effect and 100 is complete control, 13 to 15 days

CC(C)c1ccn(C2OCN(c3cccc(C(F)(F)F)c3)C2=O)n1 (stereo not shown) [Compound 27]
20: Plant response rating, Barnyardgrass [2, 23] | Plant response rating, Surinam grass [5, 24] | Plant response rating, Crabgrass [8, 23] | Plant response rating, Sunflower (Sunflower; Rate 125 g/ha)
100: Plant response rating, Barnyardgrass [14, 25] | Plant response rating, Pigweed [16, 25] | Plant response rating, Pigweed [16, 26] | Plant response rating, Lambsquarters [22, 25] | Plant response rating, Lambsquarters [22, 26]
50: Plant response rating, Morningglory [7, 24] | Plant response rating, Lambsquarters [10, 23]
60: Plant response rating, Barnyardgrass [2, 24] | Plant response rating, Pigweed [4, 24]
90: Plant response rating, Lambsquarters [10, 24] | Plant response rating, Foxtail, Giant [13, 25] | Plant response rating, Crabgrass [20, 25]
40: Plant response rating, Pigweed [4, 23] | Plant response rating, Crabgrass [8, 24] | Plant response rating, Rice (rice (Oryza saliva); [25])
30: Plant response rating, Foxtail, Giant [1, 24] | Plant response rating, Cocklebur [6, 24] | Plant response rating, Barnyardgrass [14, 26]
10: Plant response rating, Corn (corn (Zea mays) [9]; [24])
0: Plant response rating, Foxtail, Giant [1, 23] | Plant response rating, Velvetleaf [3, 23] | Plant response rating, Velvetleaf [3, 24] | Plant response rating, Surinam grass [5, 23] | Plant response rating, Cocklebur [6, 23] | Plant response rating, Morningglory [7, 23] | Plant response rating, Corn (corn (Zea mays) [9]; [23]) | Plant response rating, Wild Oat (wild oat (Avena fatua); [23]) | Plant response rating, Wild Oat (wild oat (Avena fatua); [24]) | Plant response rating, Wheat [11, 23] | Plant response rating, Wheat [11, 24] | Plant response rating, Blackgrass [12, 23] | Plant response rating, Blackgrass [12, 24] | Plant response rating, Foxtail, Giant [13, 26] | Plant response rating, Rice (rice (Oryza saliva); [26]) | Plant response rating, Velvetleaf [15, 25] | Plant response rating, Velvetleaf [15, 26] | Plant response rating, Surinam grass [17, 25] | Plant response rating, Surinam grass [17, 26] | Plant response rating, Cocklebur [18, 25] | Plant response rating, Cocklebur [18, 26] | Plant response rating, Morningglory [19, 25] | Plant response rating, Morningglory [19, 26] | Plant response rating, Crabgrass [20, 26] | Plant response rating, Corn (corn (Zea mays) [21]; [25]) | Plant response rating, Corn (corn (Zea mays) [21]; [26]) | Plant response rating (0 to 100), Nightshade (Nightshade; Rate 250 g/ha)

CCC(C)c1ccn(C2CCN(c3cccc(OC)c3)C2=O)n1 (stereo not shown) [Compound 95]
0: Plant response rating, Foxtail, Giant [1, 23] | Plant response rating, Foxtail, Giant [1, 24] | Plant response rating, Barnyardgrass [2, 23] | Plant response rating, Velvetleaf [3, 24] | Plant response rating, Surinam grass [5, 23] | Plant response rating, Surinam grass [5, 24] | Plant response rating, Cocklebur [6, 23] | Plant response rating, Crabgrass [8, 23] | Plant response rating, Corn (corn (Zea mays) [9]; [23]) | Plant response rating, Corn (corn (Zea mays) [9]; [24]) | Plant response rating, Wild Oat (wild oat (Avena fatua); [24]) | Plant response rating, Wheat [11, 24] | Plant response rating, Blackgrass [12, 23] | Plant response rating, Blackgrass [12, 24] | Plant response rating, Sunflower (Sunflower; Rate 250 g/ha) | Plant response rating, Velvetleaf [15, 27] | Plant response rating, Cocklebur [18, 27] | Plant response rating, Morningglory [19, 27]
30: Plant response rating, Barnyardgrass [2, 24]
20: Plant response rating, Cocklebur [6, 24] | Plant response rating, Morningglory [7, 24] | Plant response rating, Crabgrass [8, 24] | Plant response rating, Corn (corn (Zea mays) [21]; [27])
90: Plant response rating, Lambsquarters [10, 24] | Plant response rating, Rice (rice (Oryza saliva); [27]) | Plant response rating, Barnyardgrass [14, 27] | Plant response rating, Surinam grass [17, 25]
60: Plant response rating, Pigweed [4, 24] | Plant response rating, Surinam grass [17, 27] | Plant response rating, Cocklebur [18, 25] | Plant response rating, Morningglory [19, 25]
50: Plant response rating, Velvetleaf [15, 25] | Plant response rating, Corn (corn (Zea mays) [21]; [25])
100: Plant response rating, Foxtail, Giant [13, 25] | Plant response rating, Foxtail, Giant [13, 27] | Plant response rating, Rice (rice (Oryza saliva); [25]) | Plant response rating, Barnyardgrass [14, 25] | Plant response rating, Pigweed [16, 25] | Plant response rating, Pigweed [16, 27] | Plant response rating, Crabgrass [20, 25] | Plant response rating, Crabgrass [20, 27] | Plant response rating, Lambsquarters [22, 25] | Plant response rating, Lambsquarters [22, 27]
45: Plant response rating (0 to 100), Nightshade (Nightshade; Rate 500 g/ha)

CCCC(C)c1ccn(C2OCN(c3cccc(OC(F)(F)F)c3)C2=O)n1 (stereo not shown) [Compound 91]
70: Plant response rating, Surinam grass [17, 27]
30: Plant response rating, Velvetleaf [3, 24] | Plant response rating, Corn (corn (Zea mays) [21]; [25])
0: Plant response rating, Foxtail, Giant [1, 23] | Plant response rating, Corn (corn (Zea mays) [9]; [23]) | Plant response rating, Wild Oat (wild oat (Avena fatua); [24]) | Plant response rating, Wheat [11, 24] | Plant response rating, Blackgrass [12, 23] | Plant response rating, Blackgrass [12, 24] | Plant response rating, Sunflower (Sunflower; Rate 250 g/ha) | Plant response rating, Rice (rice (Oryza saliva); [25]) | Plant response rating, Rice (rice (Oryza saliva); [27]) | Plant response rating, Velvetleaf [15, 25] | Plant response rating, Velvetleaf [15, 27] | Plant response rating, Cocklebur [18, 25] | Plant response rating, Cocklebur [18, 27] | Plant response rating, Morningglory [19, 25] | Plant response rating, Morningglory [19, 27] | Plant response rating, Corn (corn (Zea mays) [21]; [27])
90: Plant response rating, Barnyardgrass [2, 24] | Plant response rating, Pigweed [4, 24] | Plant response rating, Crabgrass [8, 24] | Plant response rating, Foxtail, Giant [13, 27] | Plant response rating, Pigweed [16, 27]
50: Plant response rating, Barnyardgrass [2, 23]
80: Plant response rating, Cocklebur [6, 24] | Plant response rating, Morningglory [7, 24] | Plant response rating, Surinam grass [17, 25]
40: Plant response rating, Foxtail, Giant [1, 24] | Plant response rating, Crabgrass [8, 23]
20: Plant response rating, Cocklebur [6, 23]
100: Plant response rating, Lambsquarters [10, 24] | Plant response rating, Foxtail, Giant [13, 25] | Plant response rating, Barnyardgrass [14, 25] | Plant response rating, Barnyardgrass [14, 27] | Plant response rating, Pigweed [16, 25] | Plant response rating, Crabgrass [20, 25] | Plant response rating, Crabgrass [20, 27] | Plant response rating, Lambsquarters [22, 25] | Plant response rating, Lambsquarters [22, 27]
10: Plant response rating, Surinam grass [5, 23] | Plant response rating, Surinam grass [5, 24] | Plant response rating, Corn (corn (Zea mays) [9]; [24]) | Plant response rating (0 to 100), Nightshade (Nightshade; Rate 500 g/ha)

CC(C)c1ccn(C2SCN(c3cccc(OC(F)(F)F)c3)C2=O)n1 (stereo not shown) [Compound 31]
60: Plant response rating, Pigweed [4, 24] | Plant response rating, Cocklebur [6, 23]
80: Plant response rating, Lambsquarters [10, 24]
90: Plant response rating, Foxtail, Giant [13, 25]
100: Plant response rating, Barnyardgrass [2, 23] | Plant response rating, Barnyardgrass [2, 24] | Plant response rating, Barnyardgrass [14, 25] | Plant response rating, Barnyardgrass [14, 26] | Plant response rating, Pigweed [16, 25] | Plant response rating, Crabgrass [20, 25] | Plant response rating, Crabgrass [20, 26] | Plant response rating, Lambsquarters [22, 25] | Plant response rating, Lambsquarters [22, 26] | Plant response rating (0 to 100), Nightshade (Nightshade; Rate 250 g/ha)
30: Plant response rating, Morningglory [7, 24] | Plant response rating, Sunflower (Sunflower; Rate 125 g/ha) | Plant response rating, Foxtail, Giant [13, 26] | Plant response rating, Surinam grass [17, 26]
10: Plant response rating, Morningglory [7, 23]
40: Plant response rating, Crabgrass [8, 24]
20: Plant response rating, Foxtail, Giant [1, 24] | Plant response rating, Pigweed [4, 23]
0: Plant response rating, Foxtail, Giant [1, 23] | Plant response rating, Velvetleaf [3, 23] | Plant response rating, Velvetleaf [3, 24] | Plant response rating, Surinam grass [5, 23] | Plant response rating, Surinam grass [5, 24] | Plant response rating, Crabgrass [8, 23] | Plant response rating, Corn (corn (Zea mays) [9]; [23]) | Plant response rating, Corn (corn (Zea mays) [9]; [24]) | Plant response rating, Wild Oat (wild oat (Avena fatua); [23]) | Plant response rating, Wild Oat (wild oat (Avena fatua); [24]) | Plant response rating, Wheat [11, 23] | Plant response rating, Wheat [11, 24] | Plant response rating, Blackgrass [12, 23] | Plant response rating, Blackgrass [12, 24] | Plant response rating, Rice (rice (Oryza saliva); [25]) | Plant response rating, Velvetleaf [15, 25] | Plant response rating, Cocklebur [18, 25] | Plant response rating, Cocklebur [18, 26] | Plant response rating, Morningglory [19, 25] | Plant response rating, Corn (corn (Zea mays) [21]; [25]) | Plant response rating, Corn (corn (Zea mays) [21]; [26])
70: Plant response rating, Cocklebur [6, 24] | Plant response rating, Lambsquarters [10, 23] | Plant response rating, Surinam grass [17, 25]
